The values below come from ChEMBL document CHEMBL1201862, “PubChem BioAssay data set” (2004).

Test systems include SK-MEL-5; UACC-257; SN12C; HT-29; UO-31; K562; IGROV-1; NCI-H460; NCI-H522; M14; ACHN; UACC-62; EKVX; RXF 393; HL-60; HOP-92; RPMI-8226; SR.
Common to all, as to assay: DTP human tumour cell line panel, 48 h

Each structure is given as a SMILES string.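 Test compounds were applied to cells in 96-well plates for 48 hours at 5 doses. The concentration for 50% growth inhibition is given as GI50.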 Calls of active or inactive are those of the source. Cut-off read from the data, not from the text of the source: active = GI50 up to about 1.1 µM and inactive = higher.

Turning to `O=S(O)CCCSSCCCCSSCCCS(=O)O`, the GI50 in the test on SK-MEL-5, with UACC-257, with SN12C, in the test on HT-29, in the test with UO-31 and in the test with K562 was > 100 µM (inactive) in each case. Besides, the GI50 in the test with IGROV-1, in the test on NCI-H460, with NCI-H522, with M14, in the test with ACHN and in the test on UACC-62 was > 100 µM (inactive) each time. Also, the GI50 (usually the concentration giving 50% growth inhibition) in the test with EKVX was 34.4 µM (inactive); in the test on RXF 393, > 100 µM (inactive).
Regarding `COC(=O)C1(C)C=C(Nc2ccccc2)C(=O)N1c1ccccc1` (stereo not given), the GI50 is > 100 µM (inactive) with SK-MEL-5; > 100 µM (inactive) in the test with UACC-257; > 100 µM (inactive) in the test with SN12C; > 100 µM (inactive) in the test with HL-60; 54.1 µM (inactive) with HOP-92; > 100 µM (inactive) in the test with HT-29. For the same compound, the GI50 is 58.3 µM (inactive) in the test on UO-31; > 100 µM (inactive) with K562; > 100 µM (inactive) in the test with IGROV-1; > 100 µM (inactive) with RPMI-8226; > 100 µM (inactive) with NCI-H460; > 100 µM (inactive) with NCI-H522. Also, the GI50 in the test with M14 is > 100 µM (inactive); in the test with ACHN, > 100 µM (inactive); with UACC-62 it was 99.5 µM (inactive); with EKVX it was > 100 µM (inactive); in the test with RXF 393, > 100 µM (inactive).
Take `O=c1ccc2ccc(O)c3c4c(O)ccc5ccc(=O)c(c1c23)c54`: the GI50 was 1.14 µM (inactive) in the test on SK-MEL-5; 1.49 µM (inactive) in the test with UACC-257; 2.08 µM (inactive) with SN12C; 1.09 µM (active) with HL-60; 4.27 µM (inactive) with HT-29; 1.65 µM (inactive) in the test with UO-31. The GI50 is 2.07 µM (inactive) in the test on K562; 1.82 µM (inactive) in the test with IGROV-1; 2.9 µM (inactive) in the test on RPMI-8226; 3.56 µM (inactive) in the test on NCI-H460; 1.45 µM (inactive) with NCI-H522; 1.6 µM (inactive) in the test on M14. Moreover, the GI50 is 2.69 µM (inactive) with ACHN, 0.382 µM (active) in the test with UACC-62, 3.38 µM (inactive) in the test with EKVX and 1.17 µM (inactive) with RXF 393.
Turning to `O=C1C[C@@H]2C(COC(=O)c3ccccc3)N(OCc3ccccc3)C[C@@H]2O1` (stereo not given in full), the GI50 with SK-MEL-5, with UACC-257, with SN12C, in the test on HL-60, in the test with HT-29 and in the test with UO-31 was > 100 µM (inactive) in each case. The GI50 with K562, with IGROV-1, with NCI-H460, in the test with NCI-H522, in the test on SR and in the test on M14 was > 100 µM (inactive) throughout. Further, the GI50 in the test with ACHN, in the test on UACC-62, in the test on EKVX and with RXF 393 was > 100 µM (inactive) throughout.
`COc1ccccc1-c1cc(=O)c2ccccc2[nH]1`: the GI50 in the test with UACC-257 is > 100 µM (inactive); with SN12C, > 100 µM (inactive); in the test on HL-60, 43.8 µM (inactive); with UO-31, 60.7 µM (inactive); in the test with K562, 36.1 µM (inactive); in the test with IGROV-1, 99.8 µM (inactive). Besides, the GI50 in the test with RPMI-8226 was 70 µM (inactive); with NCI-H460, > 100 µM (inactive); in the test on NCI-H522, 33.9 µM (inactive); in the test with SR, 55.1 µM (inactive); in the test with M14, 99.8 µM (inactive); in the test on ACHN, > 100 µM (inactive). For the same compound, the GI50 in the test on UACC-62 was 41.7 µM (inactive); with EKVX it was > 100 µM (inactive); in the test on RXF 393, > 100 µM (inactive).
For the compound `O=c1/c(=C/c2ccc3c(c2)OCO3)sc2nnc(Cc3ccccc3)n12`, the GI50 in the test with SK-MEL-5 is > 100 µM (inactive); in the test on UACC-257, 13.1 µM (inactive); in the test with SN12C, > 100 µM (inactive); in the test on HL-60, > 100 µM (inactive); with HOP-92 it was > 100 µM (inactive); in the test with UO-31, > 100 µM (inactive). Further, the GI50 is > 100 µM (inactive) with K562; > 100 µM (inactive) with IGROV-1; 34.5 µM (inactive) in the test with RPMI-8226; > 100 µM (inactive) with NCI-H460; 92.3 µM (inactive) in the test with NCI-H522; > 100 µM (inactive) in the test with M14. The GI50 in the test with ACHN, in the test on UACC-62, in the test with EKVX and in the test on RXF 393 was > 100 µM (inactive) in each case.
`Oc1ccc2c(c1)CC[N+]1=C2CCC2CCCC21` (stereo not given) [QUINDONIUM BROMIDE]: the GI50 with SK-MEL-5, in the test with SN12C, in the test on HOP-92, with HT-29, in the test with UO-31 and with IGROV-1 was > 100 µM (inactive) throughout. Besides, the GI50 in the test on NCI-H460, with M14, in the test on ACHN, in the test with UACC-62, in the test on EKVX and in the test on RXF 393 was > 100 µM (inactive) in each case.
As to `COc1cc(O)c(C(=O)CC(C)=O)c(OC)c1`, the GI50 in the test with SK-MEL-5, in the test on UACC-257, in the test on SN12C, in the test with HL-60, in the test with HT-29 and with UO-31 was > 100 µM (inactive) each time. Further, the GI50 with K562, in the test on IGROV-1, in the test on RPMI-8226, in the test on NCI-H460, with NCI-H522 and in the test on M14 was > 100 µM (inactive) each time. For the same compound, the GI50 with ACHN, with UACC-62, with EKVX and with RXF 393 was > 100 µM (inactive) throughout.
For the compound `N#CCCN(CCC#N)c1ccc(/C=N\c2nc(-c3ccccc3)cs2)cc1`, the GI50 with SK-MEL-5 is > 100 µM (inactive); with UACC-257 it was > 100 µM (inactive); with SN12C, > 100 µM (inactive); with HL-60 it was > 100 µM (inactive); in the test with HOP-92 it was 50.8 µM (inactive); in the test with HT-29 it was > 100 µM (inactive). Besides, the GI50 with UO-31 is > 100 µM (inactive); in the test on K562 it was > 100 µM (inactive); in the test with IGROV-1, > 100 µM (inactive); in the test with RPMI-8226, > 100 µM (inactive); in the test on NCI-H460, > 100 µM (inactive); with NCI-H522, 49.3 µM (inactive). The GI50 in the test on M14 is > 100 µM (inactive); in the test with ACHN, > 100 µM (inactive); in the test with UACC-62, > 100 µM (inactive); in the test on EKVX it was > 100 µM (inactive); with RXF 393, 39.7 µM (inactive).
With `O=[N+]([O-])c1cccc(Nc2nc(Cl)nc(Cl)n2)c1`, the GI50 in the test on SK-MEL-5, with UACC-257, with SN12C, in the test on HT-29, in the test on UO-31 and in the test on K562 was > 100 µM (inactive) throughout. Besides, the GI50 with RPMI-8226, in the test on NCI-H460, in the test on NCI-H522, in the test on SR, with M14 and with ACHN was > 100 µM (inactive) in each case. In addition, the GI50 in the test with UACC-62 and in the test with EKVX was > 100 µM (inactive) each time.
In the case of `CCCCCCCCCCCCC(SCCNC(=O)CCNC(=O)C(O)C(C)(C)COP(=O)(O)OP(=O)(O)OCC1OC(n2cnc3c(N)ncnc32)C(O)C1OP(=O)(O)O)C(=O)NCC(N)=O` (stereo not given), the GI50 is > 100 µM (inactive) in the test with SK-MEL-5; > 100 µM (inactive) in the test with UACC-257; 40.1 µM (inactive) with SN12C; 72.9 µM (inactive) with HL-60; 38.3 µM (inactive) with HOP-92; > 100 µM (inactive) with HT-29. In addition, the GI50 with UO-31 was 64.9 µM (inactive); in the test on IGROV-1, > 100 µM (inactive); in the test with NCI-H460, 91.6 µM (inactive); in the test with NCI-H522, 69.2 µM (inactive); with M14, > 100 µM (inactive); in the test with ACHN, 56.6 µM (inactive). In addition, the results for the GI50 in the test on UACC-62, with EKVX and with RXF 393 were > 100 µM (inactive), > 100 µM (inactive) and 36 µM (inactive), respectively.
Take `O=C(N/C(=C\c1ccc(Br)cc1)c1nc2ccccc2s1)c1ccccc1`: the GI50 in the test on SK-MEL-5 was 36 µM (inactive); in the test on UACC-257, > 100 µM (inactive); in the test on SN12C, > 100 µM (inactive); in the test with HOP-92 it was 38.2 µM (inactive); with HT-29, 69.2 µM (inactive); in the test with UO-31, 40.3 µM (inactive). Besides, the GI50 with K562 was 51.4 µM (inactive); with IGROV-1 it was 75.2 µM (inactive); with RPMI-8226, 32.5 µM (inactive); with NCI-H460, 85.1 µM (inactive); with NCI-H522, 32 µM (inactive); in the test with M14, > 100 µM (inactive). The GI50 in the test on ACHN is 76.9 µM (inactive); in the test on UACC-62, 71 µM (inactive); in the test with EKVX, 37.5 µM (inactive); in the test with RXF 393, 43.4 µM (inactive).
`COC(=O)[C@H]1CC(=O)C=C2CCCC21` (stereo not given in full): the GI50 in the test on SK-MEL-5, in the test with UACC-257, in the test with SN12C, in the test with HL-60, in the test on HOP-92 and in the test on HT-29 was > 100 µM (inactive) each time. Moreover, the GI50 with UO-31, in the test with K562, in the test with IGROV-1, with RPMI-8226, in the test with NCI-H460 and in the test with NCI-H522 was > 100 µM (inactive) each time. Besides, the GI50 in the test with M14, with UACC-62, in the test with EKVX and in the test on RXF 393 was > 100 µM (inactive) each time.
